Measured values as given in patent US20230017045A1, “PYRIDINE AND PYRIMIDINE CARBOXYLATE HERBICIDES AND METHODS OF USE THEREOF” (Dow AgroSciences LLC, priority 2017, published 2023).
Where two headings read alike, the source gives them in different places.

Tested on: test plant species
Experiment: Post-emergent herbicidal activity test (greenhouse, foliar spray, visual growth reduction)
Assay type: in vivo
Conditions: post-emergence, 336 h, 140 g ai/ha
Method: Post-emergent Test: Seeds or nutlets of the desired test plant species were planted in Sun Gro Metro-Mix® 360 planting mixture, which typically has a pH of 6.0 to 6.8 and an organic matter content of about 30 percent, in plastic pots with a surface area of 64 square centimeters. In some aspects, to ensure good germination and healthy plants, a fungicide treatment and/or other chemical or physical treatment was applied. The plants were grown for 7-21 d in a greenhouse with an approximate 15 h photoperiod which was maintained at 23-29° C. during the day and 22-28° C. during the night. Nutrients and water were added on a regular basis and supplemental lighting was provided with overhead metal halide 1000-Watt lamps as necessary. Plants were used for testing when they reached the first or second true leaf stage. A weighed amount, determined by the highest rate to be tested, of each test compound was placed in a 25 mL glass vial and was dissolved in 4 mL of a 97:3 v/v mixture of acetone and DMSO to obtain concentrated stock solutions. […] The concentrated stock solutions obtained were diluted with 20 mL of an aqueous mixture containing acetone, water, isopropyl alcohol, DMSO, […] crop oil concentrate, and X-77 surfactant in a 48.5:39:10:1.5:1.0:0.02 v/v ratio to obtain spray solutions containing the application rate. Compound requirements are based upon a 12 mL application volume at a rate of 187 liters per hectare (L/ha). Formulated compounds were applied to the plant material with an overhead Mandel track sprayer equipped with […] nozzles calibrated to deliver 187 L/ha over an application area of 0.64 square meters at a spray height of 18 inches (43 cm) above the average plant canopy height. Control plants were sprayed in the same manner with the solvent blank. The treated plants and control plants were placed in a greenhouse as described above and watered by subirrigation to prevent wash-off of the test compounds. After 14 d, the condition of the test plants as compared with that of the nontreated and control plants was determined visually and scored on a scale of 0 to 100 percent where 0 corresponds to no injury and 100 corresponds to complete control. In the reporting of the results, Table A: Percent Growth Reduction Conversion Table was used.

[1] = ALOMY: blackgrass (Alopecurus myosuroides), 14 days after application, read-out: Visual Growth Reduction (%) 14 Days After Application, ALOMY
[2] = AMARE: redroot pigweed (Amaranthus retroflexus), 14 days after application, read-out: Visual Growth Reduction (%) 14 Days After Application, AMARE
[3] = AVEFA: wild oat (Avena fatua), 14 days after application, read-out: Visual Growth Reduction (%) 14 Days After Application, AVEFA
[4] = CHEAL: lambsquarters (Chenopodium album), 14 days after application, read-out: Visual Growth Reduction (%) 14 Days After Application, CHEAL
[5] = CIRAR: canada thistle (Cirsium arvense), 14 days after application, read-out: Visual Growth Reduction (%) 14 Days After Application, CIRAR
[6] = CYPES: yellow nutsedge (Cyperus esculentus), 14 days after application, read-out: Visual Growth Reduction (%) 14 Days After Application, CYPES
[7] = DIGSA: crabgrass (Digitaria sanguinalis), 14 days after application, read-out: Visual Growth Reduction (%) 14 Days After Application, DIGSA
[8] = ECHCG: barnyardgrass (Echinochloa crus-galli), 14 days after application, read-out: Visual Growth Reduction (%) 14 Days After Application, ECHCG
[9] = IPOHE: ivy-leaf morning glory (Ipomoea hederacea), 14 days after application, read-out: Visual Growth Reduction (%) 14 Days After Application, IPOHE
[10] = KCHSC: kochia (Bassia scoparia), 14 days after application, read-out: Visual Growth Reduction (%) 14 Days After Application, KCHSC
[11] = ORYSA: rice (Oryza sativa), 14 days after application, read-out: Visual Growth Reduction (%) 14 Days After Application, ORYSA
[12] = SETFA: giant foxtail (Setaria faberi), 14 days after application, read-out: Visual Growth Reduction (%) 14 Days After Application, SETFA
[13] = SORVU: grain sorghum (Sorghum vulgare), 14 days after application, read-out: Visual Growth Reduction (%) 14 Days After Application, SORVU
[14] = STEME: common chickweed (Stellaria media), 14 days after application, read-out: Visual Growth Reduction (%) 14 Days After Application, STEME
[15] = TRZAS: wheat, spring (Triticum aestivum), 14 days after application, read-out: Visual Growth Reduction (%) 14 Days After Application, TRZAS

| Structure (SMILES) | pest or weed control at 140 g/ha [1] [%] | pest or weed control at 140 g/ha [2] [%] | pest or weed control at 140 g/ha [3] [%] | pest or weed control at 140 g/ha [4] [%] | pest or weed control at 140 g/ha [5] [%] | pest or weed control at 140 g/ha [6] [%] | pest or weed control at 140 g/ha [7] [%] | pest or weed control at 140 g/ha [8] [%] | pest or weed control at 140 g/ha [9] [%] | pest or weed control at 140 g/ha [10] [%] | pest or weed control at 140 g/ha [11] [%] | pest or weed control at 140 g/ha [12] [%] | pest or weed control at 140 g/ha [13] [%] | pest or weed control at 140 g/ha [14] [%] | pest or weed control at 140 g/ha [15] [%] | also measured |
| --- | --- | --- | --- | --- | --- | --- | --- | --- | --- | --- | --- | --- | --- | --- | --- | --- |
| COC(=O)c1nc(-c2ccc(C(F)(F)F)cc2Br)ccc1Cl [F30, Methyl 6-(2-bromo-4-trifluoromethyl)phenyl-3-chloropicolinate] | 60 to 74 | 95 to 100 | 45 to 59 | 95 to 100 | 85 to 94 | 0 to 29 | 85 to 94 | 45 to 59 | 95 to 100 | 75 to 84 | 0 to 29 | 45 to 59 | 85 to 94 | 0 to 29 | 60 to 74 |  |
| COC(=O)c1cccc(-c2ccc(C(F)(F)F)cc2Cl)n1 [F55, Methyl 6-(2-chloro-4-(trifluoromethyl)phenyl)picolinate] | 0 to 29 | 95 to 100 | 0 to 29 | 60 to 74 | 0 to 29 | 0 to 29 | 0 to 29 | 0 to 29 | 30 to 44 | 0 to 29 | 0 to 29 | 0 to 29 | 0 to 29 | 0 to 29 | 0 to 29 |  |
| COC(=O)c1nc(-c2ccc(SC(F)(F)F)cc2)ccc1Cl [F97, Methyl 3-chloro-6-(4-((trifluoromethyl)thio)phenyl)picolinate] | 0 to 29 | 0 to 29 | 0 to 29 | 0 to 29 | 0 to 29 | 0 to 29 | 0 to 29 | 0 to 29 | 0 to 29 | 0 to 29 | 0 to 29 | 0 to 29 | 0 to 29 | 0 to 29 | 0 to 29 |  |
| O=C(O)c1nc(-c2cc3c(cc2Cl)OCO3)c(Cl)cc1Cl [F183, 3,5-Dichloro-6-(6-chlorobenzo[d][1,3]dioxol-5-yl)picolinic acid] | 0 to 29 | 60 to 74 | 0 to 29 | 0 to 29 | 30 to 44 | 0 to 29 | 0 to 29 | 0 to 29 | 75 to 84 | 0 to 29 | 0 to 29 | 0 to 29 | 0 to 29 | 0 to 29 | 0 to 29 |  |
| COC(=O)c1nc(-c2ccc(Br)cc2Cl)ccc1Cl [F27, Methyl 6-(4-bromo-2-chlorophenyl)-3-chloropicolinate] | 0 to 29 | 60 to 74 | 0 to 29 | 45 to 59 | 75 to 84 | 0 to 29 | 60 to 74 | 0 to 29 | 85 to 94 | 30 to 44 | 0 to 29 | 0 to 29 | 60 to 74 | 0 to 29 | 0 to 29 |  |
| COC(=O)c1nc(-c2ccc(C(F)(F)F)cc2Cl)cc(Cl)c1Cl [F108, methyl 3,4-dichloro-6-(2-chloro-4-(trifluoromethyl)phenyl)picolinate] | 0 to 29 | 0 to 29 | 0 to 29 | 0 to 29 | 0 to 29 | 0 to 29 | 0 to 29 | 0 to 29 | 30 to 44 | 0 to 29 | 0 to 29 | 0 to 29 | 0 to 29 |  | 0 to 29 |  |
| COC(=O)c1nc(-c2ccc(OC)cc2Cl)ccc1Cl [F35, Methyl 3-chloro-6-(2-chloro-4-methoxyphenyl) picolinate] | 0 to 29 | 30 to 44 | 0 to 29 | 0 to 29 | 0 to 29 | 0 to 29 | 0 to 29 | 0 to 29 | 0 to 29 | 0 to 29 | 0 to 29 | 0 to 29 | 0 to 29 | 0 to 29 | 0 to 29 |  |
| COC(=O)c1nc(-c2ccc(OC(F)F)cc2F)c(F)cc1Cl [F221, Methyl 3-chloro-6-(4-(difluoromethoxy)-2-fluorophenyl)-5-fluoropicolinate] |  |  |  |  |  |  |  | 85 to 94 | 95 to 100 | 85 to 94 | 0 to 29 | 85 to 94 | 95 to 100 | 0 to 29 | 75 to 84 | pest or weed control at 140 g/ha (blackgrass (Alopecurus myosuroides), 14 Days After Application, read-out: Visual Growth Reduction (%) ALOMY): 75 to 84%; pest or weed control at 140 g/ha (canada thistle (Cirsium arvense), 14 Days After Application, read-out: Visual Growth Reduction (%) CIRAR): 95 to 100%; pest or weed control at 140 g/ha (crabgrass (Digitaria sanguinalis), 14 Days After Application, read-out: Visual Growth Reduction (%) DIGSA): 95 to 100%; pest or weed control at 140 g/ha (lambsquarters (Chenopodium album), 14 Days After Application, read-out: Visual Growth Reduction (%) CHEAL): 95 to 100%; pest or weed control at 140 g/ha (redroot pigweed (Amaranthus retroflexus), 14 Days After Application, read-out: Visual Growth Reduction (%) AMARE): 95 to 100%; pest or weed control at 140 g/ha (wild oat (Avena fatua), 14 Days After Application, read-out: Visual Growth Reduction (%) AVEFA): 75 to 84%; pest or weed control at 140 g/ha (yellow nutsedge (Cyperus esculentus), 14 Days After Application, read-out: Visual Growth Reduction (%) CYPES): 75 to 84% |
